Source: paper PMC11945486, “TAS1R2/TAS1R3 Single-Nucleotide Polymorphisms Affect Sweet Taste Receptor Activation by Sweeteners: The SWEET Project” (Nutrients, 2025)
Like-named read-outs stand apart in the source and are kept apart here. No end group written: not given here.

Biological target: T1, human TAS1R2-WT/TAS1R3-A5T (Homo sapiens, UniProt Q7RTX0+Q8TE23, A5T)
T1 construct: expressed in transfected cells; host or cells: HEK293T stably expressing Gα16gust44
T1 sequence (Q8TE23 20-839): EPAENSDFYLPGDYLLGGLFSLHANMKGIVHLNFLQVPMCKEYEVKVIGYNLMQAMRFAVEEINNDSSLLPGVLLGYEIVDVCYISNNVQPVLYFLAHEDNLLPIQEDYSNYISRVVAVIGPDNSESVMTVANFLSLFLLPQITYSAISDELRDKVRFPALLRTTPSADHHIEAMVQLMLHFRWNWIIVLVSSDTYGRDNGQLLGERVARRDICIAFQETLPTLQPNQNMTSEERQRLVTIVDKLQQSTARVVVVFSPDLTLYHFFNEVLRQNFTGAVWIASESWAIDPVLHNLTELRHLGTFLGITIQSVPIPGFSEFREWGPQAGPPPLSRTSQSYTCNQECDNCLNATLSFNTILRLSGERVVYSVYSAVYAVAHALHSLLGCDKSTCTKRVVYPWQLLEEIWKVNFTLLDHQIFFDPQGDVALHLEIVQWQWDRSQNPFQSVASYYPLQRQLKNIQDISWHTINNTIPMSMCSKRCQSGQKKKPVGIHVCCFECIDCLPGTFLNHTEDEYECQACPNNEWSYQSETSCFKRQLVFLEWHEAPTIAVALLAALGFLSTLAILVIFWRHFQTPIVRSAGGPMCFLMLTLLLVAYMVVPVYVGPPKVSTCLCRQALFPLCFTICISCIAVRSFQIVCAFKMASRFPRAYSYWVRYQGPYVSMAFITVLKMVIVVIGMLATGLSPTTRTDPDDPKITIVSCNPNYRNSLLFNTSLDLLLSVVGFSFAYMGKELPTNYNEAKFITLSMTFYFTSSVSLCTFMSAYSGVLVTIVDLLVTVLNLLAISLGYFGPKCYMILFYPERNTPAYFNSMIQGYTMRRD
T1 sequence (Q7RTX0 21-852): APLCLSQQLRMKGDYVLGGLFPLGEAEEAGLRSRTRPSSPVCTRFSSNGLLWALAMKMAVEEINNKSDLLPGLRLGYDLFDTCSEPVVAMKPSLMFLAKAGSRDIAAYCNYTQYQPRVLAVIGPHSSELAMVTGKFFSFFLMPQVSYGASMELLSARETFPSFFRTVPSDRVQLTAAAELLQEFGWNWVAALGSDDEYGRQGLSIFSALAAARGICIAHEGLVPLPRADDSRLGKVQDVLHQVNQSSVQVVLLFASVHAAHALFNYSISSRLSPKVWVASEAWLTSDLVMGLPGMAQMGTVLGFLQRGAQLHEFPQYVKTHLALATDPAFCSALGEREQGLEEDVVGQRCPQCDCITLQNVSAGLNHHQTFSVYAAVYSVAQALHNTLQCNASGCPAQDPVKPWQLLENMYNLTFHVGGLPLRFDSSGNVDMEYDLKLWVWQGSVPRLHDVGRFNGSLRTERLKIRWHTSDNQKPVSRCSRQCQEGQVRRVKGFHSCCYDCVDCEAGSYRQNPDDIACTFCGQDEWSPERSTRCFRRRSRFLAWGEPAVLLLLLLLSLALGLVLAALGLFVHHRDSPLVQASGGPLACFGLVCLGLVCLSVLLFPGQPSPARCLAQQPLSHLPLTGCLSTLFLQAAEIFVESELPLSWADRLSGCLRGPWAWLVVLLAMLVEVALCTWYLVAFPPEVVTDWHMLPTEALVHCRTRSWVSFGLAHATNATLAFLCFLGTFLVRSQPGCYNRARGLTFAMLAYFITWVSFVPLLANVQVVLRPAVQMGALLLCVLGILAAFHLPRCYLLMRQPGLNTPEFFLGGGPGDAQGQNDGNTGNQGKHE
Assay: Calcium mobilisation assay, TAS1R2-WT with TAS1R3 variant A5T
Type: cell-based
Conditions: for Max ΔF/F0: maximal signal amplitude
From the text: The coding sequences for TAS1R2 and TAS1R3 were commercially synthesised, and the human codon was optimised for expression in human cells. The coding sequences of human TAS1R2 and TAS1R3 were subcloned and inserted into the mammalian expression vectors pcDNA6/myc-HisA and pcDNA4/myc-HisA (Invitrogen; Thermo Fisher Scientific; Illkirch, France) between the EcoRI and NotI restriction sites, generating the plasmids pcDNA6-TAS1R2 and pcDNA4-TAS1R3, respectively. To increase protein expression in mammalian cells, an upstream start codon was used, which was a sequence called MAX, corresponding to the QBI SP163 element also described in pcDNA4-HisMax (Invitrogen; Thermo Fisher Scientific; Illkirch, France). To measure the expression level of the receptor by immunohistochemistry, we used the FLAG sequence ([…]) in the C-terminal position, which encodes the FLAG tag epitope. SNP variants of TAS1R2 and TAS1R3 were constructed based on […], respectively, using site-directed mutagenesis (Genewiz; Leipzig, Germany).
The HEK293T cells were kindly provided by Jay P. Slack (Givaudan Flavors Corporation; Cincinnati, OH, USA). HEK293T cells stably transfected with Gα16gust44 [43, 67] were seeded in poly-D-lysine-coated clear-bottom black 96-well plates (0.35 × 10^5 cells/well) in high-glucose DMEM supplemented with 2 mM GlutaMAX, 10% dialysed foetal bovine serum with penicillin/streptomycin and G418 (400 μg/mL) at 37 °C and 6.3% CO2 in a humidified atmosphere as previously reported. […] As a negative control, HEK293T cells were mock-transfected with the empty expression vector. After a further 24 h of incubation, the HEK293T cells were washed with C1 buffer (130 mM NaCl, 5 mM KCl, 10 mM HEPES pH 7.4 and 2 mM CaCl2). The 96-well plates containing the cells were then stimulated with sweet-tasting compounds. […] Different concentration ranges were tested depending on the sweet compound injected. The Ca^2+ changes were expressed as fractional changes in fluorescent light intensity: ΔF/F = (F − F0)/F0, where F was the fluorescent light intensity at each point, and F0 was the value of emitted fluorescent light prior to stimulus application. To calculate dose–response relationships, the changes in fluorescence upon stimulus application were averaged, mock-subtracted and baseline-corrected. The dose–response data obtained were adjusted using a 4-parameter logistic equation. The half-maximal effective concentrations (EC50 values) and maximal signal amplitudes were calculated using SigmaPlot software (version 15.0) (Systat Software; San Jose, CA, USA).
For in vitro calcium mobilisation assay performed on hTAS1R2-SNPs, hTAS1R3-SNPs and mTAS1R3-I60T, 6 to 7 concentrations were tested for each sweet compound, plus buffer alone. All concentration–receptor combinations were measured in duplicate, and each experiment was repeated at least 4 times (8 wells/concentration). Results were expressed for each concentration as ΔF/F mean ± SEM and represented as dose–response curves.

Compound	R1 = Variant EC50/WT EC50	Max ΔF/F0	EC50 (read-out: EC50)	EC50 (brazzein)
C=C(C)[C@@H]1CC=C(/C=N/O)CC1 [Perillartine, perillartine]	1.0	1.42 ± 0.23	13.2 ± 6.4 µM	–
O=S(=O)(O)NC1CCCCC1 [Cyclamate, cyclamate]	–	–	1790 ± 35 µM	–
C=C1C[C@@]23CC[C@H]4[C@@](C)(CCC[C@@]4(C)C(=O)O[C@@H]4O[C@H](CO)[C@@H](O)[C@H](O[C@@H]5O[C@H](CO)[C@@H](O)[C@H](O)[C@H]5O)[C@H]4O[C@@H]4O[C@H](CO)[C@@H](O)[C@H](O)[C@H]4O)[C@@H]2CC[C@]1(O[C@@H]1O[C@H](CO)[C@@H](O)[C@H](O[C@@H]2O[C@H](CO)[C@@H](O)[C@H](O)[C@H]2O)[C@H]1O[C@@H]1O[C@H](CO)[C@@H](O)[C@H](O)[C@H]1O)C3 [Rebaudioside M, rebaudioside M]	0.7	1.06 ± 0.02	30.2 ± 1.5 µM	–
OC[C@H]1O[C@H](O[C@]2(CCl)O[C@H](CCl)[C@@H](O)[C@@H]2O)[C@H](O)[C@@H](O)[C@H]1Cl [Sucralose]	1.2	0.63 ± 0.01	135 ± 5 µM	–
CC1=CC(=O)NS(=O)(=O)O1 [Acesulfame K, acesulfame K]	1.4	0.31 ± 0.01	852 ± 34 µM	–
brazzein (QDKCKKVYENYPVSKCQLANQCNYDCKLDKHARSGECFYDEKRNLQCICDYCEY; ends and bridges not checked; cysteine pairing not given here; UniProt P56552 1-54, looked up) [sweet-tasting protein obtained by recombinant production using the yeast Pichia pastoris]	1.0	1.04 ± 0.04	–	108.3 ± 11.5 µg/mL
thaumatin	0.9	0.73 ± 0.04	9.7 ± 0.8 µM	–
COC(=O)[C@H](Cc1ccccc1)NC(=O)[C@H](CC(=O)O)NCCC(C)(C)C [Neotame]	1.0	0.65 ± 0.01	1.18 ± 0.05 µM	–
C[C@H](CC[C@@H](O[C@@H]1O[C@H](CO[C@@H]2O[C@H](CO)[C@@H](O)[C@H](O)[C@H]2O)[C@@H](O)[C@H](O)[C@H]1O[C@@H]1O[C@H](CO)[C@@H](O)[C@H](O)[C@H]1O)C(C)(C)O)[C@H]1CC[C@@]2(C)[C@@H]3CC=C4[C@@H](CC[C@H](O[C@@H]5O[C@H](CO[C@@H]6O[C@H](CO)[C@@H](O)[C@H](O)[C@H]6O)[C@@H](O)[C@H](O)[C@H]5O)C4(C)C)[C@]3(C)[C@H](O)C[C@]12C [Mogroside V, mogroside V]	1.0	0.97 ± 0.01	31.3 ± 1 µM	–
COc1ccc(CCC(=O)c2c(O)cc(O[C@@H]3O[C@H](CO)[C@@H](O)[C@H](O)[C@H]3O[C@@H]3O[C@@H](C)[C@H](O)[C@@H](O)[C@H]3O)cc2O)cc1O [NHDC, neohesperidin dihydrochalcone]	1.5	1.24 ± 0.01	76.5 ± 13.1 µM	–
